Source: patent US8815830B2, “Nucleosides with antiviral and anticancer activity” (Regents of the University of Minnesota, priority 2004, dated 2014)

Tested on: CCRF-CEM cells
Test: Test C: anti-cancer assay, CCRF-CEM cell viability by MTS reagent
Type: cell-based, human
Settings: 48 hr incubation at 37° C., MTS reagent 4 hr, absorbance at 490 nm, triplicate
Description: The anti-cancer properties of the compounds of the invention can be evaluated using the following assay.
CCRF-CEM cells were grown in medium containing RPMI 1640 supplemented with 10% heat-inactivated fetal bovine serum, penicillin (124 units/ml of medium) and streptomycin (0.125 mg/ml of medium). A stock solution of […] was made using Trypan Blue Dye Exclusion Method as a means of counting the cells. The following concentrations of test compounds were made: 250, 200, 100, 10, 1, 0.1, 0.01 and 0.001 μM. The cell stock (50 μl, 5×10^4 cells) was incubated with 50 μl of each of the compounds in triplicate in a 96-well plate. The cells were incubated with the compound at 37° C. in a 10% CO2-90% air environment for 48 hr. A negative control was also done where the cells were incubated in drug-free medium.
Cell viability was determined by adding 20 μl of MTS reagent and incubating the cells for 4 hr after which the absorbance was found at 490 nm.

Nc1ncnc2c1ncn2[C@@H]1O[C@H](CO)[C@@H](O)[C@@H]1O [Ara-A, 9-beta-D-arabinofuranosyladenosine]
IC50: 384 ± 134 µM
